Read-outs that look alike come from different tables or passages of the source.
Test system: Acinetobacter baumannii ATCC17961
Test: 90% Growth Inhibitory Concentration (IC90) determination, antimicrobial susceptibility testing
Format: cell-based
Settings: Acinetobacter baumannii, ATCC17961, 16 h, read-out: ATCC 17961 IC90
Method in brief: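 Broth microdilution in Iso-Sensitest medium, compounds twofold diluted (e.g. 50–0.097 μM final), inoculum ~5×10^(5) CFU/ml, 35±2° C. OD600 was read every 20 min over 16 h. IC90 was derived from growth inhibition during logarithmic growth.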

[1] = Acinetobacter baumannii ATCC17961, Iso-Sensitest broth, growth by optical density at 600 nm over 16h, concentration inhibiting 90% of the growth

| Structure (SMILES) | IC90 [nM] | IC90 [1] [nM] |
| --- | --- | --- |
| Cn1c(-c2cn(-c3ccc(N)cn3)nc2C(F)(F)F)cnc1C(=O)Nc1ccc(C(=O)N2CCC(CNC(=O)[C@@H]3C[C@@H](O)CN3)CC2)c(Cl)c1 [Example Z45, 5-[1-(5-amino-2-pyridyl)-3-(trifluoromethyl)pyrazol-4-yl]-N-[3-chloro-4-[4-[[[(2S,4R)-4-hydroxyprolyl]amino]methyl]piperidine-1-carbonyl]phenyl]-1-methyl-imidazole-2-carboxamide] | 650 | – |
| CN(C(=O)[C@@H]1C[C@@H](O)CN1)C1CCN(C(=O)c2ccc(NC(=O)c3ncc(-c4cn(-c5ccc(N)cn5)nc4C(F)(F)F)n3C)cc2Cl)CC1 [Example Z46, 5-[1-(5-amino-2-pyridyl)-3-(trifluoromethyl)pyrazol-4-yl]-N-[3-chloro-4-[4-[[(2S,4R)-4-hydroxyprolyl]-methyl-amino]piperidine-1-carbonyl]phenyl]-1-methyl-imidazole-2-carboxamide] | – | 390 |
| Cn1c(-c2cn(-c3ccc(N)cn3)nc2C(F)(F)F)cnc1C(=O)Nc1ccc(C(=O)NC23CC(NC(=O)[C@@H]4C[C@@H](O)CN4)(C2)C3)c(Cl)c1 [Example Z47, 5-[1-(5-amino-2-pyridyl)-3-(trifluoromethyl)pyrazol-4-yl]-N-[3-chloro-4-[[3-[[(2S,4R)-4-hydroxyprolyl]amino]-1-bicyclo[1.1.1]pentanyl]carbamoyl]phenyl]-1-methyl-imidazole-2-carboxamide] | 580 | – |
| Cn1c(-c2cn(-c3ccc(N)cn3)nc2C(F)(F)F)cnc1C(=O)Nc1ccc(C(=O)N[C@H]2CC[C@H](NC(=O)[C@@H]3C[C@@H](O)CN3)C2)c(Cl)c1 [Example Z48, 5-[1-(5-amino-2-pyridyl)-3-(trifluoromethyl)pyrazol-4-yl]-N-[3-chloro-4-[[(1S,3S)-3-[[(2S,4R)-4-hydroxyprolyl]amino]cyclopentyl]carbamoyl]phenyl]-1-methyl-imidazole-2-carboxamide] | – | 510 |
| COc1cc(-n2cc(-c3cnc(C(=O)Nc4ccc(C(=O)N5CCN(C(=O)C6CCNCC6)CC5)c(Cl)c4)n3C)c(C(F)(F)F)n2)ncn1 [Example Z49, N-[3-chloro-4-(4-isonipecotoylpiperazine-1-carbonyl)phenyl]-5-[1-(6-methoxypyrimidin-4-yl)-3-(trifluoromethyl)pyrazol-4-yl]-1-methyl-imidazole-2-carboxamide] | – | 840 |
| Cn1c(-c2cn(-c3ccnc(Cl)c3)nc2C(F)(F)F)cnc1C(=O)Nc1ccc(C(=O)N2CCN(C(=O)C3CCNCC3)CC2)c(Cl)c1 [Example Z50, N-[3-chloro-4-(4-isonipecotoylpiperazine-1-carbonyl)phenyl]-5-[1-(2-chloro-4-pyridyl)-3-(trifluoromethyl)pyrazol-4-yl]-1-methyl-imidazole-2-carboxamide] | – | 800 |
| Cn1c(-c2cn(-c3ccc(N)cn3)nc2C(F)(F)F)cnc1C(=O)Nc1ccc(C(=O)N2CCNC3(CC3)C2)c(Cl)c1 [Example Z51, 5-[1-(5-amino-2-pyridyl)-3-(trifluoromethyl)pyrazol-4-yl]-N-[3-chloro-4-(4,7-diazaspiro[2.5]octane-7-carbonyl)phenyl]-1-methyl-imidazole-2-carboxamide] | – | 990 |
| C[C@@H]1CN(C(=O)c2ccc(NC(=O)c3ncc(-c4cn(-c5ccc(N)cn5)nc4C(F)(F)F)n3C)cc2Cl)CCCN1 [Example Z52, 5-[1-(5-amino-2-pyridyl)-3-(trifluoromethyl)pyrazol-4-yl]-N-[3-chloro-4-[(3R)-3-methyl-1,4-diazepane-1-carbonyl]phenyl]-1-methyl-imidazole-2-carboxamide] | – | 1270 |
| Cn1c(-c2cn(-c3ccc(N)cn3)nc2C(F)(F)F)cnc1C(=O)Nc1ccc(C(=O)N2CC3CCCC(C2)N3)c(Cl)c1 [Example Z53, 5-[1-(5-amino-2-pyridyl)-3-(trifluoromethyl)pyrazol-4-yl]-N-[3-chloro-4-(3,9-diazabicyclo[3.3.1]nonane-3-carbonyl)phenyl]-1-methyl-imidazole-2-carboxamide] | – | 500 |
| C[C@@H]1CNC[C@H](C)N1C(=O)c1ccc(NC(=O)c2ncc(-c3cn(-c4ccc(N)cn4)nc3C(F)(F)F)n2C)cc1Cl [Example Z54, 5-[1-(5-amino-2-pyridyl)-3-(trifluoromethyl)pyrazol-4-yl]-N-[3-chloro-4-[(2S,6R)-2,6-dimethylpiperazine-1-carbonyl]phenyl]-1-methyl-imidazole-2-carboxamide] | – | 350 |
| Cn1c(-c2cn(-c3ccc(N)cn3)nc2C(F)(F)F)cnc1C(=O)Nc1ccc(C(=O)N2C3CNCC2C3)c(Cl)c1 [Example Z55, 5-[1-(5-amino-2-pyridyl)-3-(trifluoromethyl)pyrazol-4-yl]-N-[3-chloro-4-(3,6-diazabicyclo[3.1.1]heptane-6-carbonyl)phenyl]-1-methyl-imidazole-2-carboxamide] | – | 340 |
| C[C@H]1CNCCN1C(=O)c1ccc(NC(=O)c2ncc(-c3cn(-c4ccc(N)cn4)nc3C(F)(F)F)n2C)cc1Cl [Example Z56, 5-[1-(5-amino-2-pyridyl)-3-(trifluoromethyl)pyrazol-4-yl]-N-[3-chloro-4-[(2S)-2-methylpiperazine-1-carbonyl]phenyl]-1-methyl-imidazole-2-carboxamide] | – | 400 |
| Cn1c(-c2cn(-c3ccc(N)cn3)nc2C(F)(F)F)cnc1C(=O)Nc1ccc(C(=O)N2CCNC(C)(C)C2)c(Cl)c1 [Example Z57, 5-[1-(5-amino-2-pyridyl)-3-(trifluoromethyl)pyrazol-4-yl]-N-[3-chloro-4-(3,3-dimethylpiperazine-1-carbonyl)phenyl]-1-methyl-imidazole-2-carboxamide] | – | 1290 |
| CC(C)[C@H]1CN(C(=O)c2ccc(NC(=O)c3ncc(-c4cn(-c5ccc(N)cn5)nc4C(F)(F)F)n3C)cc2Cl)CCN1 [Example Z58, 5-[1-(5-amino-2-pyridyl)-3-(trifluoromethyl)pyrazol-4-yl]-N-[3-chloro-4-[(3S)-3-isopropylpiperazine-1-carbonyl]phenyl]-1-methyl-imidazole-2-carboxamide] | – | 560 |
| Cn1c(-c2cn(-c3ccc(N)cn3)nc2C(F)(F)F)cnc1C(=O)Nc1ccc(C(=O)N2CC3CNC3C2)c(Cl)c1 (stereo not drawn) [Example Z59, 5-[1-(5-amino-2-pyridyl)-3-(trifluoromethyl)pyrazol-4-yl]-N-[3-chloro-4-(3,6-diazabicyclo[3.2.0]heptane-3-carbonyl)phenyl]-1-methyl-imidazole-2-carboxamide] | – | 1310 |
| Cn1c(-c2cn(-c3ccc(N)cn3)nc2C(F)(F)F)cnc1C(=O)Nc1ccc(C(=O)N2CCCNCC2)c(Cl)c1 [Example Z60, 5-[1-(5-amino-2-pyridyl)-3-(trifluoromethyl)pyrazol-4-yl]-N-[3-chloro-4-(1,4-diazepane-1-carbonyl)phenyl]-1-methyl-imidazole-2-carboxamide] | – | 400 |
| C[C@H]1CN(C(=O)c2ccc(NC(=O)c3ncc(-c4cn(-c5ccc(N)cn5)nc4C(F)(F)F)n3C)cc2Cl)CCN1 [Example Z61, 5-[1-(5-amino-2-pyridyl)-3-(trifluoromethyl)pyrazol-4-yl]-N-[3-chloro-4-[(3S)-3-methylpiperazine-1-carbonyl]phenyl]-1-methyl-imidazole-2-carboxamide] | – | 700 |
| Cn1c(-c2cn(-c3ccc(N)cn3)nc2C(F)(F)F)cnc1C(=O)Nc1ccc(C(=O)N2C3CCC2CNC3)c(Cl)c1 [Example Z62, 5-[1-(5-amino-2-pyridyl)-3-(trifluoromethyl)pyrazol-4-yl]-N-[3-chloro-4-(3,8-diazabicyclo[3.2.1]octane-8-carbonyl)phenyl]-1-methyl-imidazole-2-carboxamide] | – | 380 |
| CC[C@@H]1CNCCN1C(=O)c1ccc(NC(=O)c2ncc(-c3cn(-c4ccc(N)cn4)nc3C(F)(F)F)n2C)cc1Cl [Example Z63, 5-[1-(5-amino-2-pyridyl)-3-(trifluoromethyl)pyrazol-4-yl]-N-[3-chloro-4-[(2R)-2-ethylpiperazine-1-carbonyl]phenyl]-1-methyl-imidazole-2-carboxamide] | – | 1170 |
| CC[C@H]1CNCCN1C(=O)c1ccc(NC(=O)c2ncc(-c3cn(-c4ccc(N)cn4)nc3C(F)(F)F)n2C)cc1Cl [Example Z64, 5-[1-(5-amino-2-pyridyl)-3-(trifluoromethyl)pyrazol-4-yl]-N-[3-chloro-4-[(2S)-2-ethylpiperazine-1-carbonyl]phenyl]-1-methyl-imidazole-2-carboxamide] | – | 440 |
| Cn1c(-c2cn(-c3ccc(N)cn3)nc2C(F)(F)F)cnc1C(=O)Nc1ccc(C(=O)NCCN2CCNCC2)c(Cl)c1 [Example Z65, 5-[1-(5-amino-2-pyridyl)-3-(trifluoromethyl)pyrazol-4-yl]-N-[3-chloro-4-(2-piperazinoethylcarbamoyl)phenyl]-1-methyl-imidazole-2-carboxamide] | – | 760 |
| Cn1c(-c2cn(-c3ccc(N)cn3)nc2C(F)(F)F)cnc1C(=O)Nc1ccc(C(=O)N2C[C@H]3C[C@@H]2CN3)c(Cl)c1 [Example Z66, 5-[1-(5-amino-2-pyridyl)-3-(trifluoromethyl)pyrazol-4-yl]-N-[3-chloro-4-[(1R,4R)-2,5-diazabicyclo[2.2.1]heptane-2-carbonyl]phenyl]-1-methyl-imidazole-2-carboxamide] | – | 1160 |
| Cn1c(-c2cn(-c3ccc(N)cn3)nc2C(F)(F)F)cnc1C(=O)Nc1ccc(C(=O)N2CCNCC23CC3)c(Cl)c1 [Example Z67, 5-[1-(5-amino-2-pyridyl)-3-(trifluoromethyl)pyrazol-4-yl]-N-[3-chloro-4-(4,7-diazaspiro[2.5]octane-4-carbonyl)phenyl]-1-methyl-imidazole-2-carboxamide] | – | 890 |
| C[C@H]1NCCN(C(=O)c2ccc(NC(=O)c3ncc(-c4cn(-c5ccc(N)cn5)nc4C(F)(F)F)n3C)cc2Cl)[C@H]1C [Example Z68, 5-[1-(5-amino-2-pyridyl)-3-(trifluoromethyl)pyrazol-4-yl]-N-[3-chloro-4-[(2S,3R)-2,3-dimethylpiperazine-1-carbonyl]phenyl]-1-methyl-imidazole-2-carboxamide] | – | 650 |

Reference: US12679824B2 (Hoffmann-La Roche Inc., priority 2020, dated 2026)
